Experimental data taken from ChEMBL document CHEMBL1132713, “Emerging molecular approaches to pain therapy” (J Med Chem, 1999).

What was measured:
Proteasome = assay: Inhibitory activity against 26S proteasome degradation of IkB; type: subcellular
[1] = target: Delta-type opioid receptor (Homo sapiens, UniProt P41143); assay: Opioid receptor delta 1 agonist activity was determined; type: functional
Delta-type opioid receptor, sequence (P41143 whole entry): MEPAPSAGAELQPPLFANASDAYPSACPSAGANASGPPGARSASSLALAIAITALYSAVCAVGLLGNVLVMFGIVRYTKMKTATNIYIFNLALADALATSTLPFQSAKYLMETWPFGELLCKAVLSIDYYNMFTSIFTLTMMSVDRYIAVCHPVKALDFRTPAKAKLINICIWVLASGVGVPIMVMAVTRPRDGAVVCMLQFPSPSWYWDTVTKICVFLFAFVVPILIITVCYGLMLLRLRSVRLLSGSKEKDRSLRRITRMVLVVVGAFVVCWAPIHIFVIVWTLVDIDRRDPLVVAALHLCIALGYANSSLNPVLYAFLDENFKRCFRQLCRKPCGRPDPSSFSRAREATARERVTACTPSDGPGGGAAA

CC(C)C[C@H](NC(=O)[C@@H](Cc1ccccc1)NC(=O)c1ccccc1)B(O)O
Ki (Proteasome): 0.6 nM

COc1ccc2c3c1OC1C4NC(C(=O)OCC(C)C)=C(C)C4CC4C(C2)N(C)CCC341 (configuration not stated)
Ki [1]: 4.8 nM
